Data set [1] relates to bioavailable intracellular iron. Put plainly: IRE-controlled luciferase reporter in 293T cells. It counts as cell-based, human. The settings on record: 12 hr. The protocol:
293T cells (10^5 cells/well of 12-well microplates) were seeded and transfected 20 hr later with a firefly luciferase (Luc)-expressing reporter plasmid and corresponding Renilla luciferase (Ren)-expressing reference plasmid using TransFectin™ (Bio-Rad, Hercules, Calif.). The bioavailable intracellular iron concentration was monitored using plasmids obtained from B. Galy and M. W. Hentze (EMBL, Heidelberg). Plasmid pcFIF-Luc contains the mouse ferritin H 5′-UTR with an iron response element (IRE) controlling Luc; pcFIRo-Ren is a similar construct expressing a mutated non-functional IRE fused to Ren. The activity of the HIV-1 promoter was monitored using the pNL4-3-Luc E molecular clone (Chen et al. (1994) J Virol 68: 654-660.), based on the recombinant infectious proviral clone that contains DNA from HIV isolates NY5 (5′ half) and IIIB (3′ half). This plasmid, obtained from D. Baltimore (Caltech, Pasadena), contains the Luc gene in place of 102 nucleotides from nef and 6 nucleotides from env. pCMV-Ren (Promega, Madison, Wis.) was used as reference for pNL4-3-Luc E. Compounds were added at the time of transfection. Cells were harvested 12 hr later, washed with phosphate-buffered saline, and lysed for the dual luciferase assay (Dual Luciferase™ Reporter Assay System; Promega, Madison, Wis.). Luc data were normalized to the Ren internal controls (Hogue et al. (2009) Retrovirology 6: 90.).
Both CPX and DEF are hydroxypyridinones with vicinally positioned oxygen atoms that mediate bidentate interaction with metal ions, in particular Fe^3+ (FIG. 11A). To evaluate the effect of drugs on the intracellular iron pool and on HIV-1 gene expression, transient expression assays in human 293T cells were exploited. Bioavailable intracellular iron was measured using a construct in which an iron-responsive element (IRE) controls luciferase expression, and HIV-specific transcription was assayed in parallel using an HIV-1 molecular clone that expresses luciferase reporter under the direction of the retroviral promoter. CPX and DEF were compared with the medicinal chelator deferoxamine (DFOX) and with the CPX fragment Agent P2, which consists of the metal-binding 1,2-HOPO domain of CPX but lacks the cyclohexyl moiety (FIG. 11A).

The test system of another data set is HIV p24. Put plainly: p24 expression from pNL4-3-LucE- molecular clone in 293T cells. The settings on record: 293T cell extract; 12 hr post-transfection. It is filed as cell-based, HIV-1. The procedure: FIGS. 3A-D are a set of diagrams and photographs showing drug effects on luciferase expression from an HIV-1 molecular clone. A. Comparison of drug effects on luciferase expression from the pNL4-3-LucE- molecular clone in 293T cells. The molecular clone pNL4-3-LucE- and pCMV-Ren were transfected into 293T cells. Drugs were added where indicated at the following concentrations: P2 (30 μM), CPX (30 μM), DEF (250 μM), or DFOX (15 μM). Dual luciferase assays were conducted at 12 hr post-transfection. Firefly (FF) luciferase expression was normalized to Renilla luciferase (Ren) from pCMV-Ren (mean of 2 experiments in duplicate, ±SD). B. Expression in Jurkat cells was assayed essentially as in panel A. C. Firefly and Renilla luciferase RNA expression was analyzed in 293T cells treated as in panel A by RPA using 32P-[UTP] labeled antisense RNA probes corresponding to the C-termini of the FF and Ren luciferase mRNAs. D. Comparison of drug effects on p24 expression from the pNL4-3-LucE- molecular clone in 293T cells. Drugs were added where indicated to the same concentrations as in A. p24 levels were determined in cell extract at 12 hr post-transfection.
p24 core antigen in the supernatant was quantified by ELISA (Retrotek HIV-1 p24™; ZeptoMetrix Corp.; Buffalo, N.Y.). HIV-1 RNA copy number in the supernatant was determined with a PCR-based and FDA-approved assay (Amplicor HIV-1 Monitor™; Roche Diagnostics Corp.; Indianapolis, Ind.). IFN-γ and IL-10 in the supernatant were determined by cytometric bead array (Human Th1/Th2 Cytokine Kit II™; BD Biosciences Pharmingen, San Jose, Calif.).

For data set [2] the following is noted: in vivo, cited from earlier work.
For a further data set, the target named is T1, eIF5A:DHS complex (Homo sapiens, UniProt P49366).
T1 construct: expressed in transfected cells; host or cells: 293T cells (FLAG-DHS transfected, eIF5A endogenous)
T1 sequence (P49366 1-369): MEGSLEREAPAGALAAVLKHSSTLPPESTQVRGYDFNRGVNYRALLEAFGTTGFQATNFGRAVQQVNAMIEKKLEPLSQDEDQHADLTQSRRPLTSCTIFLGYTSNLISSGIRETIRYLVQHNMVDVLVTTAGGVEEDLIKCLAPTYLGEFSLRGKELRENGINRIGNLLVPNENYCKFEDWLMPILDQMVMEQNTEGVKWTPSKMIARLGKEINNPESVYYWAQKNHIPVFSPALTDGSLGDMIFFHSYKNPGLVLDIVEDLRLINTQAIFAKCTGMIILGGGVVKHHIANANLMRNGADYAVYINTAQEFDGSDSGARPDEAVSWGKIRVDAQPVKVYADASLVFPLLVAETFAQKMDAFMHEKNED
The data set can be described thus: Co-immunoprecipitation of eIF5A with DHS from 293T cell extracts. The conditions noted are these: 293T transfected with FLAG-DHS. It is filed as cell-based. The protocol: (§1) Immunoprecipitation and immunoblotting experiments were carried out as described previously in Hoque et al. Mol Cell Biol 2003, 23:1688-1702.
(§2) eIF5A forms tight complexes with its modifying enzymes. Unmodified eIF5A (lysine-50) immunoprecipitates with DHS and deoxyhypusyl-eIF5A interacts with DOHH in vitro. It was discovered that the deoxyhypusyl-eIF5A:DOHH complex formed in vivo can be detected by immunoprecipitation from cell extracts. Taking advantage of this finding, the effects of the drugs on the enzyme-substrate interaction were tested. FLAG-eIF5A was expressed in 293T cells and complexes that immunoprecipitated with anti-FLAG antibody were immunoblotted and probed with antibodies against DOHH. […] As a further control, the DHS inhibitor GC7 was included in this assay. […] As expected, none of the compounds affected the immunoprecipitation of FLAG-eIF5A (FIG. 2D, middle panel) or the expression of endogenous eIF5A (FIG. 2D, bottom panel). Reciprocally, the interaction between endogenous eIF5A and tagged DOHH was inhibited by CPX and DEF (FIG. 2E, right). Similarly, the interaction of endogenous eIF5A with tagged DHS was inhibited by GC7 (FIG. 2E, left) but resistant to CPX and DEF. It is concluded that CPX and DEF, but not P2 or DFOX, target DOHH and inhibit its interaction with its substrate, deoxyhypusylelF5A.

A further data set concerns the target T2, eIF5A:DOHH complex (Homo sapiens, UniProt Q9BU89).
T2 construct: Endogenous DOHH co-immunoprecipitated with FLAG-eIF5A; expressed in transfected cells; host or cells: 293T cells (DOHH endogenous, FLAG-eIF5A transfected)
T2 sequence (Q9BU89 1-302): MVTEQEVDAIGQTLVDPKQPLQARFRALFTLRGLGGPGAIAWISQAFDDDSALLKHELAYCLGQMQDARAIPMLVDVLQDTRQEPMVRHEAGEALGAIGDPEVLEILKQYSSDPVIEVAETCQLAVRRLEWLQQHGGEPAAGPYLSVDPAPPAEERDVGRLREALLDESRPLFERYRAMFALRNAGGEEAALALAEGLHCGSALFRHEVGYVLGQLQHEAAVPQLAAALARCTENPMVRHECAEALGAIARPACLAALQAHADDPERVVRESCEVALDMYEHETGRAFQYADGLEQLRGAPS
The data set can be described thus: Co-immunoprecipitation of eIF5A with DOHH from 293T cell extracts. It counts as cell-based. The conditions noted are these: CPX 30 μM, P2 30 μM, DEF 250 μM, DFOX 10 μM, GC7 10 μM; 24 hr. The procedure: as §1, §2

The values that follow come from US20120225093A1, “Abrogating HIV-1 Infection via Drug-Induced Reactivation of Apoptosis” (UNIVERSITY OF MEDICINE AND DENTISTRY OF NEW JERSEY, priority 2010, published 2012).

Turning to `CC(=O)N(O)CCCCCNC(=O)CCC(=O)N(O)CCCCCNC(=O)CCC(=O)N(O)CCCCCN` [DFOX, deferoxamine], the “reduction of intracellular iron (IRE-dependent luciferase)” value in data set [1] amounted to 80%. Besides, in the data set on HIV p24, the “inhibition of HIV p24 expression from the molecular clone” value is “no effect”. The “peak concentration achievable in patients” value in data set [2] (human) is 15 µM. Also, the “maximum achievable in human plasma” value in data set [2] is 20 µM.

As for `NCCCCCCCN=C(N)N` [GC7], on eIF5A:DHS complex, the “interaction of endogenous eIF5A with tagged DHS” value is reported as “inhibited”. The “association of endogenous DOHH with FLAG-eIF5A” value at eIF5A:DOHH complex was “No DOHH was associated with FLAG-eIF5A”.
